Experimental data: patent US20030129193A1 (priority 2001, published 2003)

Columns and labels:
[1] = tested on: H460 human non-small cell lung carcinoma; assay: Anti-tumor effects, H460; format: in vivo, nu/nu mice
Protocol: The tumor test systems were: i) L540 human Hodgkin's disease tumors growing in SCID mice; ii) C1300 Muγ (interferon-secreting) neuroblastoma growing in nu/nu mice; iii) H460 human non-small cell lung carcinoma growing in nu/nu mice. To establish solid tumors, 1.5×10^7 tumor cells were injected subcutaneously into the right anterior flank of SCID or BALB/c nu/nu mice (Charles River Labs., Wilmingham, Mass.). When the tumors had grown to various diameters mice were assigned to different experimental groups, each containing 4 to 9 mice.
Other mice received equivalent quantities of bispecific antibody alone. The injections were performed over ˜45 seconds into one of the tail veins, followed by 200 μl of saline. The infusions were repeated six days later. Perpendicular tumor diameters were measured at regular intervals and tumor volumes were calculated.

[2] = tested on: HT29 human colorectal carcinoma; assay: Anti-tumor effects and tumor necrosis, HT29; format: in vivo, BALB/c nu/nu mice
[3] = tested on: L540rec human Hodgkin's lymphoma tumors; assay: Treatment studies, L540 Hodgkin's tumor necrosis; format: in vivo, SCID mice
Protocol: For in vivo studies, a metastasizing mouse model for human Hodgkin's lymphoma was used. 1×10^7 L540rec cells were injected subcutaneously into the right flank of SCID mice resulting in a subcutaneous tumor with lymph node metastases in the regional lymph node stations. Subcutanous tumors were measured with a caliper in three perpendicular directions a, b, and c, and volumes calculated according to the formula V=π/6×a×b×c.
Treatment was initiated when subcutaneous tumors reached a size of 150 to 300 μl. Reagents were administered into the lateral tail vein.
Mice were closely observed after treatment for clinical signs of toxicity and clinical status was documented at defined time points (5 minutes, 10 minutes, 15 minutes, 30 minutes, 1 hour, 2 hours, 24 hours, 48 hours, 72 hours). Blood samples were taken from the tail vein at 1 hour, 2 hours and 24 hours to measure TNFα blood levels. […]
Tissue samples harvested at the time of autopsy were fixed in 3% NBF (normal buffered formalin) and embedded in paraffin wax. […] Tissue sections were analyzed on a light microscope by two independent investigators and histological findings were documented. Tumor sections with necrotic areas were scanned with a GS-700 imaging densitometer (Biorad, Hercules, Calif.) and areas of necrosis were calculated as % of total section area. […]

[4] = Clinical signs of toxicity and histology of normal organs; format: in vivo, SCID mice; settings: for Symptoms: tTF alone
Protocol: Mice were closely observed after treatment for clinical signs of toxicity and clinical status was documented at defined time points (5 minutes, 10 minutes, 15 minutes, 30 minutes, 1 hour, 2 hours, 24 hours, 48 hours, 72 hours). Blood samples were taken from the tail vein at 1 hour, 2 hours and 24 hours to measure TNFα blood levels. Three days after treatment, the mice were anesthetized, blood samples were taken from the vena cava for coagulation tests, and an autopsy was performed to document any changes in gross pathology. Tumors, lymph node metastases and the major normal organs (heart, lung, brain, liver, kidney, colon, spleen, pancreas) were harvested and prepared for histological analysis.
Tissue samples harvested at the time of autopsy were fixed in 3% NBF (normal buffered formalin) and embedded in paraffin wax. Tissue blocs were cut, dewaxed and stained with hematoxilin and eosin (H&E). Tissue sections were analyzed on a light microscope by two independent investigators and histological findings were documented. Tumor sections with necrotic areas were scanned with a GS-700 imaging densitometer (Biorad, Hercules, Calif.) and areas of necrosis were calculated as % of total section area. Statistical Analysis was performed using SPSS software (SPSS Science Software, Erkrath, Germany) applying the Mann-Whitney-U-test for ungrouped data.

[5] = tested on: thrombin-antithrombin-complexes (TAT); assay: Assessment of coagulation parameters: TAT; format: in vivo, mice; settings: plasma, three days after i.v. treatment, tTF alone
Protocol: At the time of autopsy, citrated blood was sampled from the vena cava and thrombocyte-free plasma was prepared by centrifugation. The plasma was stored at −80° C. until further analysis. Thrombin-Antithrombin-complexes were detected with the Enzygnost® TAT micro-assay (Dade-Behring, Marburg, Germany) according to the manufacturer's instructions. ATIII levels were determined using the Coamatic® antithrombin-assay (Haemochrom, Essen, Germany) following the manufacturer's instructions. Changes in the blood levels of thrombin and plasmin were detected by mixing citrated plasma with the respective chromogenic substrates S2238 and S2403 (Haemochrom, Essen, Germany) and measuring the increase of the absorption at 405 nm by an ELISA reader.

[6] = tested on: bEnd 3 cells; assay: Cell bound coagulation assay, stimulated endothelial cells; format: cell-based, mouse; settings: for Factor Xa generation: mix with 0.5 μg/ml factor VIIa; for Factor Xa generation due to Factor VIIa production: mix with 2 μg/ml factor VII and 0.01 μg/ml factor VIIa, factor VII background subtracted
Protocol: To assay the coagulation induction of stimulated versus unstimulated endothelial cells, bEnd 3 cells were seeded in 48 well tissue culture plates at a density of 1×10^4 cells per well and allowed to adhere overnight. Cells were stimulated with endotoxin (0.5 μg/ml and 10 μg/ml) or TNFα (500 U/ml) for 4 h at 37° C. […] After incubation for 45 min at room temperature, cells were washed and incubated with various coagulation factor mixes as follows: (1) 0.5 μg/ml factor VIIa in a mix containing 2.8 μg/ml factor IX, 3.4 μg/ml factor X, 50 μM phospholipids, in calcium buffer (as specified above); (2) 0.01 μg/ml factor VIIa in a mix as in (1); (3) 2 μg/ml factor VII (Calbiochem-Novabiochem, San Diego, Calif.) in a mix as in (1); (4) 2 […] factor VII, 0.01 μg/ml factor VIIa in a mix as in (1). The supernatant of wells was transferred into a 96 well ELISA plate. Substrate S2765 was added and Factor Xa generation measured alongside different concentrations of Factor Xa standard (7 nkatS2222; 0.7 nkatS2222; 0.07 nkatS2222). OD405nm values were calculated as nkatS2222 Factor Xa from the Factor Xa standard curve.
bEnd 3 cells were seeded in 48 well tissue culture plates at a density of 1×10^4 cells per well and allowed to adhere overnight. Cells were stimulated with endotoxin (0.5 μg/ml and 10 μg/ml) or TNFα (500 U/ml) for 4 h at 37° C. […] After incubation for 45 min at room temperature, cells were washed and incubated with coagulation factor mix as follows: 0.5 μg/ml factor VIIa in a mix containing 2.8 μg/ml factor IX, 3.4 μg/ml factor X, 50 μM phospholipids, in calcium buffer; supernatant of wells was transferred into a 96 well ELISA plate. Substrate S2765 was added and Factor Xa generation measured alongside different concentrations of Factor Xa standard (7 nkatS2222; 0,7 nkatS2222; 0,07 nkatS2222). OD405nm values were calculated as nkatS2222 Factor Xa from the Factor Xa standard curve.

[7] = molecular target: T1, immobilized tTF (Homo sapiens, UniProt P13726); assay: Real time binding study (surface plasmon resonance); settings: alone or preincubated with endotoxin or factor VIIa
T1 construct: the extracellular domain of the mature Tissue Factor protein (amino acid 1-219 of the mature protein; inferred from Ni-NTA purification); made in house; host or cells: E. coli (periplasmic secretion, vector pswc7)

[8] = tested on: factor X; settings: appropriate phospholipid membrane environment; cited from earlier work

T1 sequence (P13726 33-251): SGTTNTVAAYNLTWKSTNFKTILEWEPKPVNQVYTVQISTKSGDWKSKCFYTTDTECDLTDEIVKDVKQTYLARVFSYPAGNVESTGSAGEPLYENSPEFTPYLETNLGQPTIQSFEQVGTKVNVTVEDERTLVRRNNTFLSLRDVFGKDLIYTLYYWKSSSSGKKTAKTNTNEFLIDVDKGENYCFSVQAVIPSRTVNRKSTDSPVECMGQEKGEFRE

tTF: extracellular domain of the mature Tissue Factor protein (amino acid 1-219)
effect on growth rate ([1]; first treatment, small (250 mm^3) tumors): little effect on growth rate
tumor volume after regression ([1]; second treatment given at 900 mm^3): 550 mm^3
growth discontinued after treatment ([2]; large (1200 mm^3) tumors, i.v.): about 7 days
necrosis in tumor sections ([2]; small HT29 tumors, single agents, 24 hours): some necrosis
tumor tissue necrosis ([3]; 4 μg or 16 μg endotoxin-free tTF alone): 0%
% tumor necrosis ([3]; Table 2, tTF alone): 4%
histological findings in normal organs ([4]; light microscopy, three days after treatment): No histological abnormalities
Symptoms ([4]; listed as TTF): None
Symptoms ([4]; listed as endotoxin-free tTF): no clinical signs of toxicity
TAT [5]: 25.4 ng/mL
Factor Xa generation ([6]; stimulation with 0.5 μg/ml LPS): 2.00 nkats2222
Factor Xa generation due to Factor VIIa production ([6]; stimulation with 0.5 μg/ml LPS): 3.00 nkats2222
Factor Xa generation ([6]; stimulation with 10 μg/ml LPS): 2.91 nkats2222
Factor Xa generation ([6]; stimulation with Medium): 0.40 nkats2222
Factor Xa generation due to Factor VIIa production ([6]; stimulation with Medium): 0.70 nkats2222
Factor Xa generation ([6]; stimulation with TNFα (500 U/ml)): 0.67 nkats2222
Factor Xa generation due to Factor VIIa production ([6]; stimulation with TNFα): 1.91 nkats2222
binding to immobilized tTF [7]: did not bind to or homodimerize with immobilized tTF
factor X-activating activity, times less than native transmembrane TF [8]: approximately 10^5 times
